# Earlier results as cited in US20220184159A1, “METHOD OF BOOSTING INNATE IMMUNITY” (UNIVERSITY OF THE SUNSHINE COAST, priority 2018, published 2022).
# Experiments:
# [1] = administered in the feed, fish
# immune system of fish = details: carp, rainbow trout, turbot and Atlantic cod
compound,measurement,setting,value
CN(C)[C@@H]1C(O)=C(C(N)=O)C(=O)[C@@]2(O)C(O)=C3C(=O)c4c(O)cccc4[C@@](C)(O)[C@H]3[C@H](O)[C@@H]12 [Oxytetracycline],ingested oxytetracycline excreted intact in the faeces,[1],70-80%
same,effect on the immune system of fish,immune system of fish,immunosuppressive effects
